From ChEMBL document CHEMBL3875185, “Structure-anticonvulsant activity studies in the group of (E)-N-cinnamoyl aminoalkanols derivatives monosubstituted in phenyl ring with 4-Cl, 4-CH3 or 2-CH3” (Bioorg Med Chem, 2017)
The source made the active and inactive calls. The rule behind the calls is not given here.

What was measured:
Mus musculus [1] = experiment: Anticonvulsant activity in maximal electroshock induced seizure mouse model assessed as suppression in hindlimb tonic extension at 300 mg/kg, ip measured at 4 hrs post dose; format: functional, organism-based
Mus musculus [2] = experiment: Anticonvulsant activity in 6-Hz induced seizure mouse model assessed as restoration of normal activity within 10 secs from stimulation at 100 mg/kg, ip at 44 mA measured at 0.5 hrs post dose; format: functional, organism-based
Rattus norvegicus [3] = experiment: Neurotoxicity in Sprague-Dawley rat assessed as behavioral change at 50 mg/kg, ip measured at […] post dose; format: toxicity, organism-based; details: in vivo
Rattus norvegicus [4] = experiment: Neurotoxicity in Sprague-Dawley rat assessed as behavioral change at 50 mg/kg, ip measured at 0.5 hrs post dose; format: toxicity, organism-based; details: in vivo
Rattus norvegicus [5] = experiment: Neurotoxicity in Sprague-Dawley rat assessed as behavioral change at 50 mg/kg, ip measured at 1 hr post dose; format: toxicity, organism-based; details: in vivo
Rattus norvegicus [6] = experiment: Neurotoxicity in Sprague-Dawley rat assessed as behavioral change at 50 mg/kg, ip measured at 2 hrs post dose; format: toxicity, organism-based; details: in vivo
Rattus norvegicus [7] = experiment: Neurotoxicity in Sprague-Dawley rat assessed as behavioral change at 50 mg/kg, ip measured at 4 hrs post dose; format: toxicity, organism-based; details: in vivo
[8] = molecular target: Histamine H2 receptor (Homo sapiens) (UniProt P25021); experiment: Displacement of [125I]APT from human recombinant H2 receptor expressed in CHO cells at 100 uM measured after 120 mins by scintillation counting method relative to control; format: cell-based
[9] = molecular target: Neuropeptide Y receptor type 2 (Homo sapiens) (UniProt P49146); experiment: Displacement of [125I]peptide YY from Y2 in human KAN-TS cells receptor at 100 uM measured after 60 mins by scintillation counting method relative to control; format: cell-based
[10] = molecular target: Glucocorticoid receptor (Homo sapiens) (UniProt P04150); experiment: Displacement of [3H]dexamethasone from GR receptor in human IM9 cells at 100 uM relative to control; format: cell-based; details: IM-9
AtT20 = experiment: Displacement of [125I]Tyr11-somatostatin-14 from Sst receptor in mouse AtT-20 cells at 100 uM measured after 60 mins by scintillation counting method relative to control; format: cell-based
[11] = molecular target: Vasopressin V1a receptor (Homo sapiens) (UniProt P37288); experiment: Displacement of [3H]AVP from human recombinant V1a receptor expressed in CHO cells at 100 uM measured after 60 mins by scintillation counting method relative to control; format: cell-based
Mus musculus [12] = experiment: Anticonvulsant activity in maximal electroshock induced seizure mouse model assessed as suppression in hindlimb tonic extension at 100 mg/kg, ip measured at 0.5 hrs post dose; format: functional, organism-based
Mus musculus [13] = experiment: Neurotoxicity in mouse assessed as induction of motor impairment at 300 mg/kg, ip measured at 0.5 hrs post dose by rotarod method; format: toxicity, organism-based; details: in vivo
Mus musculus [14] = experiment: Neurotoxicity in mouse assessed as induction of motor impairment at 300 mg/kg, ip measured at 4 hrs post dose by rotarod method; format: toxicity, organism-based; details: in vivo
Mus musculus [15] = experiment: Anticonvulsant activity in 6-Hz induced seizure mouse model assessed as restoration of normal activity within 10 secs from stimulation at 100 mg/kg, ip at 32 mA measured at 1 hr post dose; format: functional, organism-based
Rattus norvegicus [16] = experiment: Anticonvulsant activity in maximal electroshock induced seizure Sprague-Dawley rat model assessed as suppression in hindlimb tonic extension at 30 mg/kg, po measured at 1 hr post dose; format: functional, organism-based
Mus musculus [17] = experiment: Anticonvulsant activity in po dosed maximal electroshock induced seizure mouse model assessed as suppression in hindlimb tonic extension by measuring time to peak effect; format: functional
Mus musculus [18] = experiment: Anticonvulsant activity in po dosed pentylenetetrazole induced seizure mouse model assessed as no observable episode of clonic convulsion of at least 5 secs by measuring time to peak effect; format: functional
Mus musculus [19] = experiment: Anticonvulsant activity in po dosed 6-Hz induced seizure mouse model assessed as restoration of normal activity within 10 secs from stimulation by measuring time to peak effect at 44 mA; format: functional
Mus musculus [20] = experiment: Neurotoxicity in po dosed mouse assessed as induction of motor impairment by measuring time to peak effect by rotarod method; format: toxicity, organism-based; details: in vivo
Mus musculus [21] = experiment: Anticonvulsant activity in po dosed maximal electroshock induced seizure mouse model assessed as suppression in hindlimb tonic extension; format: functional
Mus musculus [22] = experiment: Anticonvulsant activity in po dosed pentylenetetrazole induced seizure mouse model assessed as no observable episode of clonic convulsion of at least 5 secs; format: functional
[23] = Protection index, ratio of TD50 for neurotoxicity in po dosed mouse to ED50 for po dosed maximal electroshock induced seizure mouse model; format: toxicity, organism-based; details: in vivo, read-out: Ratio TD50/ED50
[24] = Protection index, ratio of TD50 for neurotoxicity in po dosed mouse to ED50 for po dosed pentylenetetrazole induced seizure mouse model; format: toxicity, organism-based; details: in vivo, read-out: Ratio TD50/ED50
[25] = Protection index, ratio of TD50 for neurotoxicity in po dosed mouse to ED50 for po dosed 6-Hz induced seizure mouse model at 44 mA; format: toxicity, organism-based; details: in vivo, read-out: Ratio TD50/ED50
[26] = Neurotoxicity in po dosed mouse; format: toxicity, organism-based; details: in vivo
Rattus norvegicus [27] = experiment: Anticonvulsant activity in po dosed pentylenetetrazole induced seizure Sprague-Dawley rat model assessed as no observable episode of clonic convulsion of at least 5 secs by measuring time to peak effect; format: functional
[28] = molecular target: Type-1 angiotensin II receptor (Homo sapiens) (UniProt P30556); experiment: Displacement of [125I][Sar1,Ile8]-AT2 from human recombinant AT1 receptor expressed in HEK293 cells at 100 uM measured after 120 mins by scintillation counting method relative to control; format: cell-based
[29] = molecular target: Type-2 angiotensin II receptor (Homo sapiens) (UniProt P50052); experiment: Displacement of [125I]CGP 42112A from human recombinant AT2 receptor expressed in HEK293 cells at 100 uM measured after 4 hrs by scintillation counting method relative to control; format: cell-based
Rattus norvegicus [30] = organism: Rattus norvegicus; experiment: Displacement of [125I][Tyr4]bombesin from rat cerebral cortex BB receptor at 100 uM measured after 60 mins by scintillation counting method relative to control
[31] = molecular target: Calcitonin gene-related peptide type 1 receptor (Homo sapiens) (UniProt Q16602); experiment: Displacement of [125I]hCGRPa from human recombinant CGRP receptor expressed in CHO cells at 100 uM measured after 90 mins by scintillation counting method relative to control; format: cell-based
[32] = molecular target: Neurotensin receptor type 1 (Homo sapiens) (UniProt P30989); experiment: Displacement of [125I]Tyr3-neurotensin from human recombinant NTS1 receptor expressed in CHO cells at 100 uM measured after 60 mins by scintillation counting method relative to control; format: cell-based
Rattus norvegicus [33] = organism: Rattus norvegicus; experiment: Displacement of [3H]D888 from rat cerebral cortex calcium channel L type verapamil binding site at 100 uM measured after 120 mins by scintillation counting method relative to control
Rattus norvegicus [34] = organism: Rattus norvegicus; experiment: Displacement of [125I]alpha-dendrotoxin from rat cerebral cortex Kv channel at 100 uM measured after 60 mins by scintillation counting method relative to control
[35] = molecular target: Muscarinic acetylcholine receptor M1 (Homo sapiens) (UniProt P11229); experiment: Displacement of [3H]pirenzepine from human recombinant M1 receptor expressed in CHO cells at 100 uM measured after 60 mins by scintillation counting method relative to control; format: cell-based
[36] = molecular target: Neuropeptide Y receptor type 1 (Homo sapiens) (UniProt P25929); experiment: Displacement of [125I]peptide YY from Y1 in human SK-N-MC cells receptor at 100 uM measured after 120 mins by scintillation counting method relative to control; format: cell-based
Sequence of Neuropeptide Y receptor type 1 (Homo sapiens) (P25929 whole entry): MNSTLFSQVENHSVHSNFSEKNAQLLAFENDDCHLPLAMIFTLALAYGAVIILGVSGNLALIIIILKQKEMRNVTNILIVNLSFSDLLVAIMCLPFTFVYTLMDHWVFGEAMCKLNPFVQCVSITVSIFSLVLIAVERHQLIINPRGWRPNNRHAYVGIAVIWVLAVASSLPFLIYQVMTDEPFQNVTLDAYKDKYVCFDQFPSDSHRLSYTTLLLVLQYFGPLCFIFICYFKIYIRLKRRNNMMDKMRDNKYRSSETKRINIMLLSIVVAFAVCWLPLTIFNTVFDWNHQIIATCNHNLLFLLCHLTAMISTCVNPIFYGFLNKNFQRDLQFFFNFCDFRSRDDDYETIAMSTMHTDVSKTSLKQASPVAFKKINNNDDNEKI

Sequence of Calcitonin gene-related peptide type 1 receptor (Homo sapiens) (Q16602 whole entry): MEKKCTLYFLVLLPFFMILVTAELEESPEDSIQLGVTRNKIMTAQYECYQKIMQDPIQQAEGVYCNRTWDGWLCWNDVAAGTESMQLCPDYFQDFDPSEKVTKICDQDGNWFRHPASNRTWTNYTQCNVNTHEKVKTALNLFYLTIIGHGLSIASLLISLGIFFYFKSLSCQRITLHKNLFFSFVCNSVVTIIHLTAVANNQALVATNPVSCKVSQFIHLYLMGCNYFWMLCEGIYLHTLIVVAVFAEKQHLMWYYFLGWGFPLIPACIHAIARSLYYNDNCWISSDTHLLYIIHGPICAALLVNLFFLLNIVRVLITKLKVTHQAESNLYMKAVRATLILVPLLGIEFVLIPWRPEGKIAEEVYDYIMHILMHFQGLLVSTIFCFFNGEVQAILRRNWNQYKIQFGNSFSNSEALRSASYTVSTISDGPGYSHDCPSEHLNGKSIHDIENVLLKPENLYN
Sequence of Glucocorticoid receptor (Homo sapiens) (P04150 whole entry): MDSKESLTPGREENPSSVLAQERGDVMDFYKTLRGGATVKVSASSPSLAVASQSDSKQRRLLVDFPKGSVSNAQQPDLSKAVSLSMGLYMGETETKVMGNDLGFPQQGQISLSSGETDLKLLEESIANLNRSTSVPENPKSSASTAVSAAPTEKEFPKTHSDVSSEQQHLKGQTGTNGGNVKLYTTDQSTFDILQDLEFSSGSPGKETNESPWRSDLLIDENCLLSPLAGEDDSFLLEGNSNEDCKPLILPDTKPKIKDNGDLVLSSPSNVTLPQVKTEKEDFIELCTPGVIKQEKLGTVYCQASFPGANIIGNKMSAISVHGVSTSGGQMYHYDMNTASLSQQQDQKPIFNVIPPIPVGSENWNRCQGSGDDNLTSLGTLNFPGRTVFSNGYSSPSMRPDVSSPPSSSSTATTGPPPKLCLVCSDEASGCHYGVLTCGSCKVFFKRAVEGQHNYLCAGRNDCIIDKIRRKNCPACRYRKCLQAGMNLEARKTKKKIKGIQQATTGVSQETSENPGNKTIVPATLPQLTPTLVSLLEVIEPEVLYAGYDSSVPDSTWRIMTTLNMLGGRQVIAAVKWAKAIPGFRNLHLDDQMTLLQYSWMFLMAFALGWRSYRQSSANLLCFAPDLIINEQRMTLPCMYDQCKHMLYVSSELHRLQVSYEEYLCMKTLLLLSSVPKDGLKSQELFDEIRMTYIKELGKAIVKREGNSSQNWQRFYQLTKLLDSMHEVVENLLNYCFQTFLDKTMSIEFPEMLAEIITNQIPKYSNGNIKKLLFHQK
Sequence of Neurotensin receptor type 1 (Homo sapiens) (P30989 whole entry): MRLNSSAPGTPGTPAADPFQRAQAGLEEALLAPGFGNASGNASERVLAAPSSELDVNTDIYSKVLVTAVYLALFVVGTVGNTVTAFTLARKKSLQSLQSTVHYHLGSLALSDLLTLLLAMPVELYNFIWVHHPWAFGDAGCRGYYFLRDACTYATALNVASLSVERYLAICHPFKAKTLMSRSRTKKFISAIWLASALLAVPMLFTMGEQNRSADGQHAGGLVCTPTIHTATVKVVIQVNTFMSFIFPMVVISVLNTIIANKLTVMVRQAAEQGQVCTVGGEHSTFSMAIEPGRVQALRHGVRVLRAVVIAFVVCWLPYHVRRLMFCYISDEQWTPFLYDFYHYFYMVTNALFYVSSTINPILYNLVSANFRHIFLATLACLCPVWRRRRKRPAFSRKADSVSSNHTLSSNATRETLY
Sequence of Type-1 angiotensin II receptor (Homo sapiens) (P30556 whole entry): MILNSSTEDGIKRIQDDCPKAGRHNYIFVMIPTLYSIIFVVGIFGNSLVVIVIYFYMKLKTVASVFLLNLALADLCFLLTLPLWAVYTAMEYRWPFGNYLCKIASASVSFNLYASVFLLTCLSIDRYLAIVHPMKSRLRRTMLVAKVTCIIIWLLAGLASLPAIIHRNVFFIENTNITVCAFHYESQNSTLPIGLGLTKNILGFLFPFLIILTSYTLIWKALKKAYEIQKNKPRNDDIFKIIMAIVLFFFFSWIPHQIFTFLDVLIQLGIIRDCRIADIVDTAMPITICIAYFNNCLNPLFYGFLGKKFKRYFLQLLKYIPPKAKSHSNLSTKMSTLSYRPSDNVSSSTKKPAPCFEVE
Sequence of Neuropeptide Y receptor type 2 (Homo sapiens) (P49146 whole entry): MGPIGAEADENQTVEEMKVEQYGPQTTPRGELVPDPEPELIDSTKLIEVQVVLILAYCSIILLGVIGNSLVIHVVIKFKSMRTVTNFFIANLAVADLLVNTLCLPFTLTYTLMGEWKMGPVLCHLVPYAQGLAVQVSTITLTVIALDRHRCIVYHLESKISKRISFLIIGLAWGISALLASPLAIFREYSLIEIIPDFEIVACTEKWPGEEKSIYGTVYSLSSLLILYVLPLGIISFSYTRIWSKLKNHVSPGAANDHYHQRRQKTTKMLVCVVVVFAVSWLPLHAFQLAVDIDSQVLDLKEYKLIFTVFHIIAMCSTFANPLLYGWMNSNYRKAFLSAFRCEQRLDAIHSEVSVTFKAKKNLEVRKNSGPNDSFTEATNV
Sequence of Vasopressin V1a receptor (Homo sapiens) (P37288 whole entry, looked up): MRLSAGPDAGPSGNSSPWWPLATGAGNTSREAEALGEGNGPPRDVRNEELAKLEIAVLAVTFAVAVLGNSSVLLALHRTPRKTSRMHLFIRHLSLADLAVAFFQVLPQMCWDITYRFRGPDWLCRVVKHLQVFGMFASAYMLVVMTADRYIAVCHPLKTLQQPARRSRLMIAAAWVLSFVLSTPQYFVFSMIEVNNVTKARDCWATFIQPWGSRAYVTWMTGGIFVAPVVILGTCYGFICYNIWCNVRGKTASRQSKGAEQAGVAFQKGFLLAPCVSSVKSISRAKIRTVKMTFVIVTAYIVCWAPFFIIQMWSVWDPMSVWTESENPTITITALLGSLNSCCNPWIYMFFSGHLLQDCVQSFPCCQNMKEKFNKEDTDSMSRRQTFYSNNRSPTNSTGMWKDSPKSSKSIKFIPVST
Sequence of Histamine H2 receptor (Homo sapiens) (P25021 whole entry): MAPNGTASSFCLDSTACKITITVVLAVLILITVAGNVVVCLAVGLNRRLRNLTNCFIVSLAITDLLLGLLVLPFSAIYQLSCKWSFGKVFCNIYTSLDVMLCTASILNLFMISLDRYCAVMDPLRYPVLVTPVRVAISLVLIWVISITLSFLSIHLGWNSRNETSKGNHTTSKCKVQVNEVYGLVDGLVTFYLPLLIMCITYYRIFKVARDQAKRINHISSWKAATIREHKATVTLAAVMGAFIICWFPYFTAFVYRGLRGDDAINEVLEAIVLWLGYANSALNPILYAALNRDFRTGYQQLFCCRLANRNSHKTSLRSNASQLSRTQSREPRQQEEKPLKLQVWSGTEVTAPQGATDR
Sequence of Muscarinic acetylcholine receptor M1 (Homo sapiens) (P11229 whole entry): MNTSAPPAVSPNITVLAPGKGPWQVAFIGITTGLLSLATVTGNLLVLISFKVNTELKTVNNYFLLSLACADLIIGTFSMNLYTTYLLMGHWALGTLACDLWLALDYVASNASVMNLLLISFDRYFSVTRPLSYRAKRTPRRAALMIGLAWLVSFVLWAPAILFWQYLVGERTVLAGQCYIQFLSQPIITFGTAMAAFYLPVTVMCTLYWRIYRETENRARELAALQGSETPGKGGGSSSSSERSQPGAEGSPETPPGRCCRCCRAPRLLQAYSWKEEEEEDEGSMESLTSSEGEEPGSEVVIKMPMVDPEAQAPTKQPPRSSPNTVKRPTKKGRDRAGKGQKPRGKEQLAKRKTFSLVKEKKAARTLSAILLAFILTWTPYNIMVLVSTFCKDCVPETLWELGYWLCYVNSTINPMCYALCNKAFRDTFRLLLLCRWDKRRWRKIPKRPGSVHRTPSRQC
Sequence of Type-2 angiotensin II receptor (Homo sapiens) (P50052 whole entry): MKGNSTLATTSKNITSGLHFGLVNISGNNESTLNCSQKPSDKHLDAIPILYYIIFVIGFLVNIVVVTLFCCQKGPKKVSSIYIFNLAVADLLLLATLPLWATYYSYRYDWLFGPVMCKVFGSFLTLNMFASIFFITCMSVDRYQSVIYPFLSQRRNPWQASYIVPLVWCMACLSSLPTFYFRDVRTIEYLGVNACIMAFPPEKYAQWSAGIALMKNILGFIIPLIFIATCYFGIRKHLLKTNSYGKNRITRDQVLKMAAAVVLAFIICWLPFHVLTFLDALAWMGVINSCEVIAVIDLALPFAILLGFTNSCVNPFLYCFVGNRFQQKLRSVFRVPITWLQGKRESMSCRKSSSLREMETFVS

For `CCC(CO)NC(=O)/C=C/c1ccc(Cl)cc1` (configuration not stated), the Activity (Mus musculus [1]) was “Active”, the Activity (Mus musculus [2]) was “Active” and the Activity (Rattus norvegicus [3]) was “Non-Toxic”. The Activity (Rattus norvegicus [4]) was “Non-Toxic”, the Activity (Rattus norvegicus [5]) was “Non-Toxic” and the Activity (Rattus norvegicus [6]) was “Non-Toxic”. The Activity (Rattus norvegicus [7]) was “Non-Toxic”, the inhibition [8] was -5.2% and the inhibition [9] was 4.3%. The inhibition [10] was -9.9%, the inhibition (AtT20) was -10% and the inhibition [11] was 10.6%.
For `Cc1ccccc1/C=C/C(=O)N[C@@H](C)CO`, the Activity (Mus musculus [12]) was “Active”, the Activity (Mus musculus [13]) was “Toxic” and the Activity (Mus musculus [14]) was “Non-Toxic”. For the same molecule, the Activity (Mus musculus [15]) was “Active”, the Activity (Rattus norvegicus [16]) was “Active” and the Time (Mus musculus [17]) was 0.5 h. It also gave a Time (Mus musculus [18]) of 0.5 h, a Time (Mus musculus [19]) of 0.5 h and a Time (Mus musculus [20]) of 0.25 h. It also gave an ED50 (Mus musculus [21]) of 43.3 mg/kg, an ED50 (Mus musculus [22]) of 132 mg/kg and a selectivity ratio [23] of 6.51. For the same molecule, the selectivity ratio [24] was 2.15, the selectivity ratio [25] was 3.81 and the TD50 [26] was 282 mg/kg. The Time (Rattus norvegicus [27]) was 1 h, the inhibition [28] was -0.8% and the inhibition [29] was 2.6%. The inhibition (Rattus norvegicus [30]) was -3.4%, the inhibition [31] was -7.6% and the inhibition [32] was -4.6%. It also gave an inhibition (AtT20) of -4.6%, an inhibition (Rattus norvegicus [33]) of -0.4% and an inhibition (Rattus norvegicus [34]) of -8.7%.
In the case of `CC(O)CNC(=O)/C=C/c1ccc(Cl)cc1` (configuration not stated), the Activity (Mus musculus [1]) is reported as “Active”, the Activity (Mus musculus [13]) is reported as “Toxic” and the Activity (Mus musculus [14]) is reported as “Toxic”. The Activity (Mus musculus [15]) was “Active”, the Activity (Mus musculus [2]) was “Active” and the Activity (Rattus norvegicus [3]) was “Non-Toxic”. For the same molecule, the Activity (Rattus norvegicus [4]) was “Non-Toxic”, the Activity (Rattus norvegicus [5]) was “Non-Toxic” and the Activity (Rattus norvegicus [6]) was “Non-Toxic”. The Activity (Rattus norvegicus [7]) was “Non-Toxic”, the Time (Mus musculus [17]) was 1 h and the Time (Mus musculus [18]) was 1 h. It also gave a Time (Mus musculus [19]) of 1 h, an ED50 (Mus musculus [21]) of 92.5 mg/kg and an ED50 (Mus musculus [22]) of 132 mg/kg. It also gave a selectivity ratio [23] greater than 5.41, a selectivity ratio [24] greater than 3.79 and a selectivity ratio [25] greater than 4.17. The TD50 [26] was greater than 500 mg/kg, the inhibition [28] was -9.6% and the inhibition (Rattus norvegicus [30]) was -0.1%. It also gave an inhibition [31] of -6.9%, an inhibition [8] of -6.4% and an inhibition [35] of -9.8%. It also gave an inhibition [36] of -5.8%, an inhibition [9] of 14.1% and an inhibition [32] of -2.6%. It also gave an inhibition [10] of -7%, an inhibition [11] of 9% and an inhibition (Rattus norvegicus [33]) of -2.5%. The inhibition (Rattus norvegicus [34]) was -9.6%.
